The compounds below were run against T1, SMYD3 (Homo sapiens, UniProt Q9H7B4) (assay: SMYD3 biochemical assay (MTase-Glo, MAP3K2 peptide substrate)). Settings: Table 3; MTase assay, MAP3K2 peptide substrate; read-out: IC50.
T1 sequence (Q9H7B4 1-428): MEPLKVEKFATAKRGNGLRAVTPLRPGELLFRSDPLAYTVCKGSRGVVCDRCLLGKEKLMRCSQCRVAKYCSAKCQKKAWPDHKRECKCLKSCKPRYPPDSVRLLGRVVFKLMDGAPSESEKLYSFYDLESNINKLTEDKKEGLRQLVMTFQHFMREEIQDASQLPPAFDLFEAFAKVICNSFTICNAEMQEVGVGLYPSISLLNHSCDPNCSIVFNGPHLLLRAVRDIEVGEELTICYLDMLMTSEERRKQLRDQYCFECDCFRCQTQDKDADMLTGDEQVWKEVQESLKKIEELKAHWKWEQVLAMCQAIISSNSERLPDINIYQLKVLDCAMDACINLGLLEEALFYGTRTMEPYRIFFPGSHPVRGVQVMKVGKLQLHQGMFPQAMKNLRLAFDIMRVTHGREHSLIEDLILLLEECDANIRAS
In short: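 Methylation of MAP3K2 peptide (10 µM final) with SAM (1.0 µM final) by SMYD3, 30 min at room temperature. SAH formed was enzymatically converted to ATP and detected as luminescence with MTase-Glo reagents; IC50 by non-linear regression.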

`CCCOC(=O)N1CCN(C(=O)c2ccc3c(Cl)c4c(nc3c2)CC(c2ncccc2F)CC4)[C@H](C)C1` (stereo partly drawn) [A113, Propyl (3R)-4-(9-chloro-6-(3-fluoropyridin-2-yl)-5,6,7,8-tetrahydroacridine-3-carbonyl)-3-methylpiperazine-1-carboxylate] and `CCCOC(=O)N1CCN(C(=O)c2ccc3c(Cl)c4c(nc3c2)CC(c2ncccc2F)CC4)C[C@H]1C` (stereo partly drawn) [A115, Propyl (2R)-4-(9-chloro-6-(3-fluoropyridin-2-yl)-5,6,7,8-tetrahydroacridine-3-carbonyl)-2-methylpiperazine-1-carboxylate] are within 1.5-fold of each other in IC50: 0.34 µM for the first, 0.27 µM for the second.

`CCCOC(=O)N1CCN(C(=O)c2ccc3c(Cl)c4c(nc3c2)CC(c2ccnc(C)c2)CC4)[C@H](C)C1` (stereo partly drawn) [A114, Propyl (3R)-4-(9-chloro-6-(2-methylpyridin-4-yl)-5,6,7,8-tetrahydroacridine-3-carbonyl)-3-methylpiperazine-. 1-carboxylate] and `CCCOC(=O)N1CCN(C(=O)c2ccc3c(Cl)c4c(nc3c2)CC(c2ccnc(C)c2)CC4)C[C@H]1C` (stereo partly drawn) [A122, Propyl (2R)-4-(9-chloro-6-(2-methylpyridin-4-yl)-5,6,7,8-tetrahydroacridine-3-carbonyl)-2-methylpiperazine-1-carboxylate] are within 1.5-fold of each other in IC50: 0.11 µM for the first, 0.12 µM for the second.

Compared with `CCCOC(=O)N1CCN(C(=O)c2ccc3c(Cl)c4c(nc3c2)CCCC4)C(C#N)C1` (stereo not shown) [A116, Propyl 4-(9-chloro-5,6,7,8-tetrahydroacridine-3-carbonyl)-3-cyanopiperazine-1-carboxylate], `CCCOC(=O)N1CCN(C(=O)c2ccc3c(Cl)c4c(nc3c2)CCCC4)CC1C#N` (stereo not shown) [A117, Propyl 4-(9-chloro-5,6,7,8-tetrahydroacridine-3-carbonyl)-2-cyanopiperazine-1-carboxylate] is 1.8-fold lower in IC50: 0.21 µM for the first, 0.12 µM for the second.

Compared with `CCCOC(=O)N1CCN(C(=O)c2ccc3c(Cl)c4c(nc3c2)C(C)CCC4)CC1` (stereo not shown) [A118, Propyl 4-(9-chloro-5-methyl-5,6,7,8-tetrahydroacridine-3-carbonyl)piperazine-1-carboxylate], `CCCOC(=O)N1CCN(C(=O)c2ccc3c(Cl)c4c(nc3c2)C(C)CCC4)C[C@H]1C` (stereo partly drawn) [A127, Propyl (2R)-4-(9-chloro-5-methyl-5,6,7,8-tetrahydroacridine-3-carbonyl)-2-methylpiperazine-1-carboxylate] is 1.6-fold lower in IC50: 0.18 µM for the first, 0.11 µM for the second.

Compared with `CCCOC(=O)N1CCN(C(=O)c2ccc3c(Cl)c4c(nc3c2)C(c2ccccc2)CCC4)CC1` (stereo not shown) [A119, Propyl 4-(9-chloro-5-phenyl-5,6,7,8-tetrahydroacridine-3-carbonyl)piperazine-1-carboxylate], `CCCOC(=O)N1CCN(C(=O)c2ccc3c(Cl)c4c(nc3c2)CC(c2ccc(C)cn2)CC4)CC1` (stereo not shown) [A130, Propyl 4-(9-chloro-6-(5-methylpyridin-2-yl)-5,6,7,8-tetrahydroacridine-3-carbonyl)piperazine-1-carboxylate] is 15-fold lower in IC50: 1.9 µM for the first, 0.13 µM for the second. The second is the more potent here.

`CCCOC(=O)N1CCN(C(=O)c2ccc3c(Cl)c4c(nc3c2)CC(CCN(C)C)CC4)[C@H](C)C1` (stereo partly drawn) [A120, Propyl (3R)-4-(9-chloro-6-(2-(dimethylamino)ethyl)-5,6,7,8-tetrahydroacridine-3-carbonyl)-3-methylpiperazine-1-carboxylate] and `CCCOC(=O)N1CCN(C(=O)c2ccc3c(Cl)c4c(nc3c2)CC(CCN(C)C)CC4)[C@@H](C)C1` (stereo partly drawn) [A126, Propyl (3S)-4-(9-chloro-6-(2-(dimethylamino)ethyl)-5,6,7,8-tetrahydroacridine-3-carbonyl)-3-methylpiperazine-1-carboxylate] are within 1.5-fold of each other in IC50: 0.12 µM for the first, 0.11 µM for the second.

First: CCCOC(=O)N1CCN(C(=O)c2ccc3c(Cl)c4c(nc3c2)CC(CCN2CCCC2)CC4)CC1 (stereo not shown) [A121, Propyl 4-(9-chloro-6-(2-(pyrrolidin-1-yl)ethyl)-5,6,7,8-tetrahydroacridine-3-carbonyl)piperazine-1-carboxylate]
Second: CCCOC(=O)N1CCN(C(=O)c2ccc3c(Cl)c4c(nc3c2)CC(c2nccs2)CC4)CC1 (stereo not shown) [A128, Propyl 4-(9-chloro-6-(thiazol-2-yl)-5,6,7,8-tetrahydroacridine-3-carbonyl)piperazine-1-carboxylate]
The IC50 of the first is 2.2-fold higher: 0.22 µM for the first, 0.1 µM for the second.

Going from `CCCOC(=O)N1CCN(C(=O)c2ccc3c(Cl)c4c(nc3c2)CC(c2ccnc(C)c2)CC4)C[C@@H]1C` (stereo partly drawn) [A123, Propyl (2S)-4-(9-chloro-6-(2-methylpyridin-4-yl)-5,6,7,8-tetrahydroacridine-3-carbonyl)-2-methylpiperazine-1-carboxylate] to `CCCOC(=O)N1CCN(C(=O)c2ccc3c(Cl)c4c(nc3c2)CC(c2ccnc(C#N)c2)CC4)C[C@H]1C` (stereo partly drawn) [A140, Propyl (2R)-4-(9-chloro-6-(2-cyanopyridin-4-yl)-5,6,7,8-tetrahydroacridine-3-carbonyl)-2-methylpiperazine-1-carboxylate], the IC50 rises from 0.14 µM to 0.42 µM (3-fold).

Compared with `CCCOC(=O)N1CCN(C(=O)c2ccc3c(Cl)c4c(nc3c2)CC(c2ncccc2F)CC4)C[C@@H]1C` (stereo partly drawn) [A124, Propyl (2S)-4-(9-chloro-6-(3-fluoropyridin-2-yl)-5,6,7,8-tetrahydroacridine-3-carbonyl)-2-methylpiperazine-1-carboxylate], `CCCOC(=O)N1CCN(C(=O)c2ccc3c(Cl)c4c(nc3c2)CC(c2ccc(C)cn2)CC4)C[C@H]1C` (stereo partly drawn) [A131, Propyl (2R)-4-(9-chloro-6-(5-methylpyridin-2-yl)-5,6,7,8-tetrahydroacridine-3-carbonyl)-2-methylpiperazine-1-carboxylate] is 3.1-fold lower in IC50: 0.34 µM for the first, 0.11 µM for the second. The second is the more potent here.

`CCCOC(=O)N1CCN(C(=O)c2ccc3c(Cl)c4c(nc3c2)CCCC4)C(CO)C1` (stereo not shown) [A125, Propyl 4-(9-chloro-5,6,7,8-tetrahydroacridine-3-carbonyl)-3-(hydroxymethyl)piperazine-1-carboxylate] and `C#CCC1CCc2c(nc3cc(C(=O)N4CCN(C(=O)OCCC)C[C@@H]4C)ccc3c2Cl)C1` (stereo partly drawn) [A137, Propyl (3S)-4-(9-chloro-6-(prop-2-yn-1-yl)-5,6,7,8-tetrahydroacridine-3-carbonyl)-3-methylpiperazine-1-carboxylate] are within 1.5-fold of each other in IC50: 0.25 µM for the first, 0.29 µM for the second.

`CCCOC(=O)N1CCN(C(=O)c2ccc3c(Cl)c4c(nc3c2)CC(c2nccs2)CC4)C[C@H]1C` (stereo partly drawn) [A129, Propyl (2R)-4-(9-chloro-6-(thiazol-2-yl)-5,6,7,8-tetrahydroacridine-3-carbonyl)-2-methylpiperazine-1-carboxylate] and `CCCOC(=O)N1CCN(C(=O)c2ccc3c(Cl)c4c(nc3c2)CC(c2cc(C)ccn2)CC4)C[C@H]1C` (stereo partly drawn) [A133, Propyl (2R)-4-(9-chloro-6-(4-methylpyridin-2-yl)-5,6,7,8-tetrahydroacridine-3-carbonyl)-2-methylpiperazine-1-carboxylate] are within 1.5-fold of each other in IC50: 0.094 µM for the first, 0.12 µM for the second.

`CCCOC(=O)N1CCN(C(=O)c2ccc3c(Cl)c4c(nc3c2)CC(c2cc(C)ccn2)CC4)CC1` (stereo not shown) [A132, Propyl 4-(9-chloro-6-(4-methylpyridin-2-yl)-5,6,7,8-tetrahydroacridine-3-carbonyl)piperazine-1-carboxylate] and `CCCOC(=O)N1CCN(C(=O)c2ccc3c(Cl)c4c(nc3c2)CC(c2ccncn2)CC4)CC1` (stereo not shown) [A134, Propyl 4-(9-chloro-6-(pyrimidin-4-yl)-5,6,7,8-tetrahydroacridine-3-carbonyl)piperazine-1-carboxylate] are within 1.5-fold of each other in IC50: 0.21 µM for the first, 0.14 µM for the second.

`CCCOC(=O)N1CCN(C(=O)c2ccc3c(Cl)c4c(nc3c2)CC(CCN(C)C)CC4)C[C@H]1C` (stereo partly drawn) [A135, Propyl (2R)-4-(9-chloro-6-(2-(dimethylamino)ethyl)-5,6,7,8-tetrahydroacridine-3-carbonyl)-2-methylpiperazine-1-carboxylate] and `CCCOC(=O)N1CCN(C(=O)c2ccc3c(Cl)c4c(nc3c2)CC(CCN(C)C)CC4)C[C@@H]1C` (stereo partly drawn) [A136, Propyl (2S)-4-(9-chloro-6-(2-(dimethylamino)ethyl)-5,6,7,8-tetrahydroacridine-3-carbonyl)-2-methylpiperazine-1-carboxylate] are within 1.5-fold of each other in IC50: 0.075 µM for the first, 0.069 µM for the second.

Going from `CCCOC(=O)N1CCN(C(=O)c2ccc3c(Cl)c4c(nc3c2)CC(c2ccnc(C#N)c2)CC4)CC1` (stereo not shown) [A138, Propyl 4-(9-chloro-6-(2-cyanopyridin-4-yl)-5,6,7,8-tetrahydroacridine-3-carbonyl)piperazine-1-carboxylate] to `CCCOC(=O)N1CCN(C(=O)c2ccc3c(Cl)c4c(nc3c2)CC(c2ccnc(C(N)=O)c2)CC4)CC1` (stereo not shown) [A139, Propyl 4-(6-(2-carbamoylpyridin-4-yl)-9-chloro-5,6,7,8-tetrahydroacridine-3-carbonyl)piperazine-1-carboxylate], the IC50 falls from 0.68 µM to 0.35 µM (1.9-fold). The second is the more potent here.

Going from `CCCOC(=O)N1CCN(C(=O)c2ccc3c(Cl)c4c(nc3c2)CC(c2ccnc(C(N)=O)c2)CC4)C[C@H]1C` (stereo partly drawn) [A141, Propyl (2R)-4-(6-(2-carbamoylpyridin-4-yl)-9-chloro-5,6,7,8-tetrahydroacridine-3-carbonyl)-2-methylpiperazine-1-carboxylate] to `CCCOC(=O)N1CCN(C(=O)c2ccc3c(Cl)c4c(nc3c2)CC(c2ccnc(C#N)c2)CC4)[C@@H](C)C1` (stereo partly drawn) [A143, Propyl (3S)-4-(9-chloro-6-(2-cyanopyridin-4-yl)-5,6,7,8-tetrahydroacridine-3-carbonyl)-3-methylpiperazine-1-carboxylate], the IC50 rises from 0.23 µM to 0.46 µM (2-fold).

Work on `C#CCC1CCc2c(nc3cc(C(=O)N4CCN(C(=O)OCCC)[C@H](C)C4)ccc3c2Cl)C1` (stereo partly drawn) [A142, Propyl (2R)-4-(9-chloro-6-(prop-2-yn-1-yl)-5,6,7,8-tetrahydroacridine-3-carbonyl)-2-methylpiperazine-1-carboxylate] yielded an IC50 of 0.42 µM.
